# Results as given in ChEMBL document CHEMBL1201862, “PubChem BioAssay data set” (2004).
# Active and inactive are the calls of the source.
# Tests used:
# [1] = target: Paired box protein Pax-8 (Homo sapiens, UniProt Q06710); assay: inhibitors of PAX8-driven TPO luciferase reporter, dose response, RMG-I cells, cherry-pick (AID 687027); assay type: functional, cell-based;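 also: luciferase reporter driven by Pax8 target thyroperoxidase promoter measured by SteadyGlo luminescence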
# [2] = inhibitors of PGC1a acetylation in cells, dose response, cell-based, cherry-picked samples (AID 720514); assay type: functional;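 also: potency may reflect raised or lowered acetylation signal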
# [3] = P. falciparum Dd2 growth inhibitors, dose response, SYBR Green, cherry-picked samples (AID 1159567); assay type: functional, cell-based
# [4] = HepG2 cell cytotoxicity, dose response, cytotoxicity control, cherry-picked samples (AID 1159577); assay type: functional, cell-based
# [5] = P. falciparum 3D7-ScDHODH growth inhibitors, dose response, SYBR Green, dry powder samples (AID 1159570); assay type: functional, cell-based;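 also: parasite growth measured after 72 hours of compound exposure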
# [6] = HepG2 cell cytotoxicity, dose response, cytotoxicity control, plate reader, dry powder samples (AID 1159569); assay type: functional, cell-based;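 also: inhibitor potency with signal falling toward the positive control level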
# [7] = P. falciparum Dd2 growth inhibitors, dose response, SYBR Green, dry powder samples (AID 1159566); assay type: functional, cell-based;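 also: potency for growth inhibition with lower SYBR green DNA signal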
# [8] = Plasmodium falciparum Dd2 Sybr green parasite growth Measured in Cell-Based and Microorganism Combination System Using Plate Reader - 2153-01_Inhibitor_Dose_DryPowder_Activity_Set3.; assay type: functional
# [9] = P. falciparum ATP4 D1247Y mutant growth inhibitors, dose response, NITD609-resistant line, SYBR Green, dry powder (AID 1159571); assay type: functional, cell-based;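 also: parasites synchronized at ring stage by sorbitol before testing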
# [10] = Concentration-dependent survival of SW480 colon cancer line, luminescence detection with CellTiter-Glo, half-maximal inhibitory concentration (AID 1117338); assay type: functional
# [11] = RKO cell viability reduction, dose response, CellTiter-Glo luminescence (AID 1117322); assay type: functional
# [12] = cytotoxicity toward HCT116 cells – cell-based, CellTiter-Glo luminescence, IC50, dose response (AID 1117332); assay type: functional; settings: HCT-116
# [13] = SNU-C1 cell viability reduction, dose response, CellTiter-Glo luminescence (AID 1117323); assay type: functional, cell-based
# [14] = cytotoxicity toward Colo320 cells – cell-based, CellTiter-Glo luminescence, IC50, dose response (AID 1117334); assay type: functional; settings: COLO 320
# [15] = cytotoxicity toward HT-29 cells – cell-based, CellTiter-Glo luminescence, IC50, dose response (AID 1117330); assay type: functional
# [16] = CellTiter-Glo luminescent dose response of DLD-1 viability loss (AID 1117352); assay type: functional
# [17] = HCT116 cell viability decrease, GSK3B pretreatment – CellTiter-Glo, IC50, dose response (AID 1117339); assay type: functional; settings: HCT-116
# [18] = target: Heat shock protein HSP90 (Homo sapiens, UniProt P07900+P08238); assay: tumor Hsp90 inhibitor potency, dose response (AID 712); assay type: functional
# [19] = target: T1, Estrogen receptor (Homo sapiens, UniProt P03372);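 also: potency for inhibiting coactivator peptide recruitment to the receptor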
# T1 sequence (P03372 whole entry): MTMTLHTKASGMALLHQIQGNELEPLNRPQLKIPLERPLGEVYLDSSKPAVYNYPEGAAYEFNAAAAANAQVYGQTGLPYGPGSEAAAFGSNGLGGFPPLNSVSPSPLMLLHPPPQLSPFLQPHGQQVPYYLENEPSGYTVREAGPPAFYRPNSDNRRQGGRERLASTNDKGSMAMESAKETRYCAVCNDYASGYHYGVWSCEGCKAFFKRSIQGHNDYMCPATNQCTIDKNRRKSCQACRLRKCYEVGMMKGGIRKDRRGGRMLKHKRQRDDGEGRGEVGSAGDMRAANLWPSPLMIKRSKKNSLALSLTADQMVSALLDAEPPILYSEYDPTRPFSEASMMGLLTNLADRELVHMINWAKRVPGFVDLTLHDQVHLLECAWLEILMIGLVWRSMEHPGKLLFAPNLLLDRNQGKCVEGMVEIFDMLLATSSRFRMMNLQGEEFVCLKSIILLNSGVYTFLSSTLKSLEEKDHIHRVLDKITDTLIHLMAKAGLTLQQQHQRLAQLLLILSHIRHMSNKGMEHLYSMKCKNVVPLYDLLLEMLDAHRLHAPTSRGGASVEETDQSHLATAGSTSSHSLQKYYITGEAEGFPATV
# [20] = target: T2, Estrogen receptor beta (Homo sapiens, UniProt Q92731);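 also: recombinant ER-beta bound to coactivator SRC1 peptide in presence of estradiol agonist; inhibitors block coactivator peptide binding and lower the FRET signal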
# [21] = target: T2, Estrogen receptor beta; assay: ERβ–SRC-3 coactivator interaction inhibitors, confirmation, orthogonal assay, biochemical, ELISA, streptavidin-HRP readout (AID 1060)
# [22] = target: Induced myeloid leukemia cell differentiation protein Mcl-1 (Homo sapiens, UniProt Q07820); assay type: functional
# [23] = target: Trypsin (Sus scrofa, UniProt P00761); assay: porcine trypsin inhibitors, dose response, selectivity assay for Rce1 protease inhibitor project, biochemical, quenched peptide fluorescence, cherry-pick (AID 488789)
# [24] = target: T3, CAAX prenyl protease 2 (Homo sapiens, UniProt Q9Y256); assay: human Rce1 protease inhibitors, dose response, biochemical, yeast membranes, quenched-peptide fluorescence, cherry-pick (AID 588849)
# T3 sequence (Q9Y256 whole entry): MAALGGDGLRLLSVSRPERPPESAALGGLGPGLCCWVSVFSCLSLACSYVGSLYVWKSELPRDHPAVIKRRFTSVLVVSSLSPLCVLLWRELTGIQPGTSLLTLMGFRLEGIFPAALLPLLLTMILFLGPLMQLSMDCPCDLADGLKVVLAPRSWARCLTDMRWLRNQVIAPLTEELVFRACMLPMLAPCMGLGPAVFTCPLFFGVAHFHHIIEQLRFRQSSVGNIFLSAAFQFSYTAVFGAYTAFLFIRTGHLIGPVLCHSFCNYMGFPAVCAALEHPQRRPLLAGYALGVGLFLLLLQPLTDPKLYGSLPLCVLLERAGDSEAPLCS
# [25] = target: Transthyretin (Homo sapiens, UniProt P02766); assay: Luminescence-based cell-based high throughput dose response assay to identify activators of Transthyretin (TTR) transcription.; assay type: functional
# [26] = Vero cell cytotoxicity, dose response, cytotoxicity control for Vif-APOBEC3G degradation inhibitor project, Vero cells (AID 1117358); assay type: functional; settings: Human immunodeficiency virus 1, Vero
# T2 sequence (Q92731 whole entry): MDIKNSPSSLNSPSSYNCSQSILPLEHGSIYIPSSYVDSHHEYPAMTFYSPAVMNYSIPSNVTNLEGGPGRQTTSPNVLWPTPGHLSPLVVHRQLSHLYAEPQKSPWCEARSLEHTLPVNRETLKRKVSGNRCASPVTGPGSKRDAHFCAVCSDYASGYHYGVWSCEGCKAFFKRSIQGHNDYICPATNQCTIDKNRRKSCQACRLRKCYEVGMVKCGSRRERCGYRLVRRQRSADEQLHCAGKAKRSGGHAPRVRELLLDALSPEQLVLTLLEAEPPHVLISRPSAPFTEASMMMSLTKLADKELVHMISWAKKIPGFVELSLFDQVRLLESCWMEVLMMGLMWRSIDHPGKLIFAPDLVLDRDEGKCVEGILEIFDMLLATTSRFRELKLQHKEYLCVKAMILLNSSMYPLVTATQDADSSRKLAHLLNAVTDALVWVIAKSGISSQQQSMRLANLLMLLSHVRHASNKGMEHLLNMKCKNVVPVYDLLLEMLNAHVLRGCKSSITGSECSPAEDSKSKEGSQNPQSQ
# Trypsin, sequence (P00761 whole entry): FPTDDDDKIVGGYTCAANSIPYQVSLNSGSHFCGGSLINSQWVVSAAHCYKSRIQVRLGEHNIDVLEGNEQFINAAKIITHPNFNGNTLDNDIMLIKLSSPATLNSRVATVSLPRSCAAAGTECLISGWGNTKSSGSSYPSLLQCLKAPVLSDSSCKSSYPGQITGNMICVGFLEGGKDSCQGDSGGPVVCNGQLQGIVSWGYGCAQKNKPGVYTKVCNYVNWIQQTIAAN
# Induced myeloid leukemia cell differentiation protein Mcl-1, sequence (Q07820 whole entry): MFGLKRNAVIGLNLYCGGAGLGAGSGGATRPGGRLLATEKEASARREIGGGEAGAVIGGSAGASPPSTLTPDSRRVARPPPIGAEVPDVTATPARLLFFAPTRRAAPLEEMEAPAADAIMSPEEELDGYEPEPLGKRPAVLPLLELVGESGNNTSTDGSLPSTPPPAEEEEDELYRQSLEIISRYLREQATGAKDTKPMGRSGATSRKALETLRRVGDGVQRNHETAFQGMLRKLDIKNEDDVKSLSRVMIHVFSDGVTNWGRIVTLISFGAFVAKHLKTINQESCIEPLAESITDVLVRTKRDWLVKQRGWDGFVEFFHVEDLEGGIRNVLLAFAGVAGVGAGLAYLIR
# Paired box protein Pax-8, sequence (Q06710 whole entry): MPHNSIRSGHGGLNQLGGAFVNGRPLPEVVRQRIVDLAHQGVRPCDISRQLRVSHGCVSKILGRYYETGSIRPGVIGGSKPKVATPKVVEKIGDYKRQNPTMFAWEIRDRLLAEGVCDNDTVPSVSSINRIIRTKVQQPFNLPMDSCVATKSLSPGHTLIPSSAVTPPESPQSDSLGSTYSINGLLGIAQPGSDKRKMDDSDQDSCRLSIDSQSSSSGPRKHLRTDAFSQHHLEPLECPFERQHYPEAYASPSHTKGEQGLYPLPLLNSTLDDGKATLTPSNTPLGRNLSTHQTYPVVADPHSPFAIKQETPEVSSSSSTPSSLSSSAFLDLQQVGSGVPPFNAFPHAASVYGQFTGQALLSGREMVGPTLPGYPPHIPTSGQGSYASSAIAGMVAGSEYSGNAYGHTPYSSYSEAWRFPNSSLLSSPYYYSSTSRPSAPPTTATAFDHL
smiles,measurement,setting,value
O=C(Nc1ccc(C(F)(F)F)cc1)N1C[C@@H]2N[C@H](C1)[C@@H]2c1ccc(-c2cccc(F)c2)cc1,AC50,[1],22.4 µM (active)
same,AC50,[2],4.04 µM (active)
same,AC50,[3],3.45 µM (active)
same,AC50,[4],3.52 µM (active)
CCCNC(=O)N1[C@H](C#N)[C@H](c2ccc(-c3cccc(OC)c3)cc2)[C@H]1CO,AC50,[5],10.4 µM (active)
same,AC50,[6],> 100 µM (inactive)
same,AC50,[3],< 0.3 µM (active)
same,AC50,[7],0.0154 µM (active)
same,AC50,[8],0.0751 µM (active)
same,AC50,[9],0.0278 µM (active)
Clc1ccc(C(Cn2ccnc2)OCc2ccsc2Cl)c(Cl)c1 (configuration not stated) [TIOCONAZOLE],IC50,[10],> 20 µM (inactive)
same,IC50,[11],5.25 µM (inactive)
same,IC50,[12],4.07 µM (active)
same,IC50,[13],2.18 µM (active)
same,IC50,[14],5.23 µM (inactive)
same,IC50,[15],> 20 µM (inactive)
same,IC50,[16],> 20 µM (inactive)
same,IC50,[17],2.84 µM (active)
COc1ccc(OC)c(/C=N/c2oc(-c3ccco3)c(-c3ccco3)c2C#N)c1,IC50,[18],21.1062 µM
same,IC50,[19],16.3 µM (active)
same,IC50,[20],6.47 µM (active)
same,IC50,[21],9.23 µM (not active)
same,IC50,[22],6.88 µM (active)
same,AC50,[23],7.23 µM (active)
same,AC50,[24],4.46 µM (active)
Cc1cccc(N(C)c2ncnc3onc(-c4ccc(F)cc4)c23)c1C,EC50,[25],> 167 µM (inactive)
CC1CCCCN1C(=O)c1ccc(S(=O)(=O)N2CCCCC2C)cc1 (configuration not stated),CC50,[26],> 40 µM (active)
